{"source": "patent US8633005B2", "about": "“Isocyclomaltooligosaccharide(s), isocyclomaltooligosaccharide-forming enzyme, their preparation and uses” (Hayashibara Co., Ltd., priority 2004, dated 2014)", "key": {"[1]": {"experiment": "Amino-carbonyl reaction with glycine", "format": "physicochemical", "conditions": "5% (w/v) saccharide + 1% (w/v) glycine, pH 7.0, 120° C., blank subtracted", "description": "ICG5, used in Experiment 15 and commercially available super high-grade glycine were dissolved in deionized water, and then admixed with phosphate buffer to make into an aqueous ICG5 solution containing 5% (w/v) of ICG5 and 1% (w/v) glycine, adjusted to pH 7.0. As a control, an aqueous α-cyclodextrin (α-CD) solution containing α-CD and glycine was prepared in the same manner using α-CD in place of ICG5. Four milliliters each of the solution was put in a glass tube, sealed and then heated at 120° C. for 30, 60, or 90 min. After cooling the solutions in ambient temperature, the degrees of coloring of the solutions were measured to estimate the degree of amino-carbonyl reaction. As a blank test, a solution containing glycine only was heated in the same manner. The degree of coloring was defined as an absorbance at 480 nm using a 1 cm-cell after subtracting the absorbance of the blank test."}, "[2]": {"test_system": "pancreas α-amylase", "text": "(§1) 43, 23-29 (1990), the digestibility of ICM by salivary α-amylase, artificial gastric juice, pancreas amylase, and small intestinal enzymes were investigated using ICG5, used in Experiment 15. […] In Table 18, the digestion (%) means a value calculated by the formula: Digestion (%)=(The amount of reducing saccharides/The amount of the total saccharides)×100 , in respective reaction described above."}, "[3]": {"target": "T1, salivary α-amylase (Homo sapiens, UniProt P0DUB6)", "T1 sequence (P0DUB6 16-511)": "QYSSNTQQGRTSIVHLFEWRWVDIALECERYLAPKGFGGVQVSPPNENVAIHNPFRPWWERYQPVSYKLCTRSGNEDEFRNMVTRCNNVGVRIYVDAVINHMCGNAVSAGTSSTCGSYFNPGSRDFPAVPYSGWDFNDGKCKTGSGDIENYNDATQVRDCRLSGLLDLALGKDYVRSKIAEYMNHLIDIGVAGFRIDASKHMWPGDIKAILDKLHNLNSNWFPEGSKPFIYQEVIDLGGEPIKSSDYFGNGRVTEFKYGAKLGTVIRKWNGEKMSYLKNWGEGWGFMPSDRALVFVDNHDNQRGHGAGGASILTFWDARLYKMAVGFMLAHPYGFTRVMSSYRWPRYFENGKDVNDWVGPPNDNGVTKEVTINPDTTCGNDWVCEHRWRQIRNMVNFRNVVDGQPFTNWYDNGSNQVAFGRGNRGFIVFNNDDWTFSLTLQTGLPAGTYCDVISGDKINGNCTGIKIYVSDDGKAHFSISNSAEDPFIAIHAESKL", "text": "as §1"}, "[4]": {"test_system": "small intestinal enzymes", "text": "as §1"}, "[5]": {"experiment": "Clathrating action of ICM (amount of compound clathrated, gas-chromatography)", "format": "physicochemical", "conditions": "3-folds molar amount", "description": "ICG5 used in Experiment 15, was dissolved in deionized water to make into an aqueous solution containing 20% (w/v) of ICG5. Twenty milliliters of the aqueous solution was admixed with 3-folds amount, on a molar basis to ICG5, of either of four kinds of short chain alcohols, i.e., methanol, ethanol, propanol, and butanol; four kinds of short chain fatty acids, i.e., acetic acid, propionic acid, n-butyric acid, and n-valeic acid; and four kinds of aromatic compounds, i.e., benzyl alcohol, phenethyl alcohol, 4-phenyl-1-propanol, and o-cresol; and then stirred the mixture to homogeneity for allowing ICG5 to clathrate the compound. Successively, each solution was filtrated, and the resulting filtrate was freeze-dried to remove unclathrated compound. In order to measure the amount of compound clathrated in the freeze-dried product, the amount of each compound in each freeze-dried product was determined by gas-chromatography. Alpha-CD was used as a control and subjected to the similar test."}, "[6]": {"experiment": "Reducing power by the Somogyi-Nelson method", "format": "physicochemical", "excerpt": "It was concluded that Saccharides I and II were substantially non-reducing saccharides."}, "[7]": {"test_system": "mice", "experiment": "Acute toxicity test, oral, mice", "format": "in vivo", "excerpt": "By using mice, ICG5 used in Experiment 15 was orally administrated to the mice for its acute toxicity test. […] Though not so accurate, the value of LD50 of ICG5 was 5 g/kg-mouse weight or higher."}, "[8]": {"experiment": "Amino-carbonyl reaction with polypeptone", "format": "physicochemical", "conditions": "with 5% (w/v) polypeptone, 120° C., blank subtracted", "description": "ICG5 used in Experiment 15 and commercially available polypeptone, commercialized by Nihon Pharmaceutical Co., Ltd., Tokyo, Japan, were dissolved in deionized water to make into an aqueous solution containing […] and 5% (w/v) of polypeptone. As a control, an aqueous solution containing α-CD and polypeptone was prepared in the same manner using α-CD in place of ICG5. Four milliliters each of the solution was put in a glass tube, sealed and then heated at 120° C. for 30, 60, or 90 min. After cooling the solutions in ambient temperature, the degrees of coloring of the solutions were measured to estimate the degree of amino-carbonyl reaction. As a blank test, a solution containing polypeptone only was heated in the same manner. The degree of coloring was defined as an absorbance at 480 nm using a 1 cm-cell after subtracting the absorbance of the blank test."}, "[9]": {"experiment": "Thermal stability of ICM (ICG5 aqueous solution heated at 120° C.)", "format": "physicochemical", "conditions": "for Degree of coloring / Purity: 5% (w/v) aqueous solution, 120° C.; for Purity: HPLC", "description": "ICG5, prepared from soluble starch by the method in Experiment 11 and purified to give a purity of 100% by the method in Experiment 1, was used as material. An aqueous ICG5 solution with a concentration of 5% (w/v) was prepared by dissolving ICG5 in deionized water. Then, 8 ml each of the resulting solution was pored into a glass tube, sealed closely, and then heated at 120° C. for 30 to 90 min. After cooling the solution, the degree of coloring of the solution was measured. Further, the purity of ICG5 in the solution was measured by HPLC. The degree of coloring was defined as an absorbance at 480 nm using a 1 cm-cell."}}, "data": [{"smiles": "OCC1OC2OC3C(CO)OC(OC4C(CO)OC(OC5C(CO)OC(OCC6OC(OC1C(O)C2O)C(O)C(O)C6O)C(O)C5O)C(O)C4O)C(O)C3O", "note": "[ICG5, cyclo{→6)-α-D-glucopyranosyl-(1→4)-α-D-glucopyranosyl-(1→4)-α-D-glucopyranosyl-(1→4)-.α-D-glucopyranosyl-(1→4)α-D-glucopyranosyl-(1→}]", "values": [{"measurement": "Degree of coloring", "setting": "[1]; heating time 0 min", "value": 0.00, "unit": "A480 nm"}, {"measurement": "Degree of coloring", "setting": "[1]; heating time 30 min", "value": 0.00, "unit": "A480 nm"}, {"measurement": "Degree of coloring", "setting": "[1]; heating time 60 min", "value": 0.00, "unit": "A480 nm"}, {"measurement": "Degree of coloring", "setting": "[1]; heating time 90 min", "value": 0.00, "unit": "A480 nm"}, {"measurement": "Digestion", "setting": "[2]", "value": 0, "unit": "%"}, {"measurement": "Digestion", "setting": "[3]", "value": 0, "unit": "%"}, {"measurement": "Digestion", "setting": "[4]", "value": 0.2, "unit": "%"}, {"measurement": "Amount of compound clathrated", "setting": "[5]; objective compound: 4-Phenyl 1-propanol (aromatic compound)", "value": 225.2, "unit": "mg/g-freeze-dried product"}, {"measurement": "Amount of compound clathrated", "setting": "[5]; objective compound: Acetic acid (short chain fatty acid)", "value": 82.4, "unit": "mg/g-freeze-dried product"}, {"measurement": "Amount of compound clathrated", "setting": "[5]; objective compound: Benzyl alcohol (aromatic compound)", "value": 61.9, "unit": "mg/g-freeze-dried product"}, {"measurement": "Amount of compound clathrated", "setting": "[5]; objective compound: Butanol (short chain alcohol)", "value": 82.7, "unit": "mg/g-freeze-dried product"}, {"measurement": "Amount of compound clathrated", "setting": "[5]; objective compound: Ethanol (short chain alcohol)", "value": 57.6, "unit": "mg/g-freeze-dried product"}, {"measurement": "Amount of compound clathrated", "setting": "[5]; objective compound: Methanol (short chain alcohol)", "value": 33.5, "unit": "mg/g-freeze-dried product"}, {"measurement": "Amount of compound clathrated", "setting": "[5]; objective compound: Phenethyl alcohol (aromatic compound)", "value": 10.0, "unit": "mg/g-freeze-dried product"}, {"measurement": "Amount of compound clathrated", "setting": "[5]; objective compound: Propanol (short chain alcohol)", "value": 69.2, "unit": "mg/g-freeze-dried product"}, {"measurement": "Amount of compound clathrated", "setting": "[5]; objective compound: Propionic acid (short chain fatty acid)", "value": 91.4, "unit": "mg/g-freeze-dried product"}, {"measurement": "Amount of compound clathrated", "setting": "[5]; objective compound: n-Butyric acid (short chain fatty acid)", "value": 69.9, "unit": "mg/g-freeze-dried product"}, {"measurement": "Amount of compound clathrated", "setting": "[5]; objective compound: n-Valeic acid (short chain fatty acid)", "value": 48.3, "unit": "mg/g-freeze-dried product"}, {"measurement": "Amount of compound clathrated", "setting": "[5]; objective compound: o-Cresol (aromatic compound)", "value": 151.5, "unit": "mg/g-freeze-dried product"}, {"measurement": "Reducing power", "setting": "[6]", "value": "less than the measurable limit"}, {"measurement": "Mortality", "setting": "[7]; oral, highest possible dose", "value": "no mouse died"}, {"measurement": "LD50", "setting": "[7]; orally administrated, though not so accurate", "value": "≥ 5", "unit": "g/kg-mouse weight"}, {"measurement": "Degree of coloring", "setting": "[8]; heating time 0 min", "value": 0.00, "unit": "A480 nm"}, {"measurement": "Degree of coloring", "setting": "[8]; heating time 30 min", "value": 0.02, "unit": "A480 nm"}, {"measurement": "Degree of coloring", "setting": "[8]; heating time 60 min", "value": 0.02, "unit": "A480 nm"}, {"measurement": "Degree of coloring", "setting": "[8]; heating time 90 min", "value": 0.02, "unit": "A480 nm"}, {"measurement": "Degree of coloring", "setting": "[9]; heating time 0 min", "value": 0.00, "unit": "A480 nm"}, {"measurement": "Purity", "setting": "[9]; heating time 0 min", "value": 100, "unit": "%"}, {"measurement": "Degree of coloring", "setting": "[9]; heating time 30 min", "value": 0.00, "unit": "A480 nm"}, {"measurement": "Purity", "setting": "[9]; heating time 30 min", "value": 100, "unit": "%"}, {"measurement": "Degree of coloring", "setting": "[9]; heating time 60 min", "value": 0.00, "unit": "A480 nm"}, {"measurement": "Purity", "setting": "[9]; heating time 60 min", "value": 100, "unit": "%"}, {"measurement": "Degree of coloring", "setting": "[9]; heating time 90 min", "value": 0.01, "unit": "A480 nm"}, {"measurement": "Purity", "setting": "[9]; heating time 90 min", "value": 100, "unit": "%"}, {"measurement": "Thermal stability", "setting": "[9]; aqueous solution heated to 120° C.", "value": "stable under the heating condition"}]}]}
